# Reference: ChEMBL document CHEMBL5385846, “Discovery and development of palmatine analogues as anti-NASH agents by activating farnesoid X receptor (FXR)” (Eur J Med Chem, 2023)
# Active and inactive are the calls of the source. No cut-off for these calls is given here.
# How the values were obtained:
# [1] = Acute toxicity in Kunming mouse assessed as effect on AST level at 250 to 1000 mg/kg,po administration; assay type: organism-based; details: in vivo, dose 250-1000 mg/kg
# Rattus norvegicus [2] = test: Antifibrotic activity in bile duct ligation induced Sprague-Dawley rat liver fibrosis model assessed as downregulation of TGF-beta1 mRNA expression at 200 mg/kg,po qd administration for 14 days by qRT-PCR analysis; assay type: functional, organism-based; details: time 14.0 day
# Mus musculus [3] = test: Hepatoprotective activity in CDAHFD induced C57BL/6N mouse liver injury model assessed as decrease in total bilirubin level at 200 mg/kg,po qd administration for 4 weeks; assay type: functional, organism-based
# [4] = Acute toxicity in Kunming mouse assessed as effect on blood urea nitrogen level at 250 to 1000 mg/kg,po administration; assay type: organism-based; details: in vivo, dose 250-1000 mg/kg
# Mus musculus [5] = test: Antifibrotic activity in CDAHFD induced non-alcoholic steatohepatitis C57BL/6N mouse model assessed as downregulation of MMP2 mRNA expression at 200 mg/kg,po qd administration for 4 weeks by qRT-PCR analysis; assay type: functional, organism-based
# Rattus norvegicus [6] = test: Antifibrotic activity in bile duct ligation induced Sprague-Dawley rat liver fibrosis model assessed as downregulation of TIMP1 mRNA expression at 200 mg/kg,po qd administration for 14 days by qRT-PCR analysis; assay type: functional, organism-based; details: time 14.0 day
# Mus musculus [7] = test: Hepatoprotective activity in CDAHFD induced C57BL/6N mouse liver injury model assessed as decrease in LDH level at 200 mg/kg,po qd administration for 4 weeks; assay type: functional, organism-based
# Mus musculus [8] = test: Hepatoprotective activity in CDAHFD induced C57BL/6N mouse liver injury model assessed as reduction in fatty droplets at 200 mg/kg,po qd administration for 4 weeks by Oil red-O staining based microscopic analysis; assay type: functional, organism-based
# Mus musculus [9] = test: Hepatoprotective activity in CDAHFD induced C57BL/6N mouse liver injury model assessed as decrease in AST level at 200 mg/kg,po qd administration for 4 weeks; assay type: functional, organism-based
# [10] = Half life in human liver microsomes at 1 micromol/L measured upto 60 mins in presence of NADPH by LC-MS/MS analysis; assay type: ADME, Microsome; details: dose 1 µmol/L
# Mus musculus [11] = test: Hepatoprotective activity in CDAHFD induced C57BL/6N mouse liver injury model assessed as decrease in ALP level at 200 mg/kg,po qd administration for 4 weeks; assay type: functional, organism-based
# Mus musculus [12] = test: Hepatoprotective activity in CDAHFD induced C57BL/6N mouse liver injury model assessed as increase in glutathione peroxidase level at 200 mg/kg,po qd administration for 4 weeks; assay type: functional, organism-based
# Rattus norvegicus [13] = test: Hepatoprotective activity in bile duct ligation induced Sprague-Dawley rat liver injury model assessed as decrease in AST level at 200 mg/kg,po qd administration for 14 days; assay type: functional, organism-based; details: time 14.0 day
# Rattus norvegicus [14] = test: Hepatoprotective activity in bile duct ligation induced Sprague-Dawley rat liver injury model assessed as decrease in ALP level at 200 mg/kg,po qd administration for 14 days; assay type: functional, organism-based; details: time 14.0 day
# [15] = Cytotoxicity against human LX2 cells assessed as inhibition of cell growth; assay type: toxicity, cell-based, LX-2
# Mus musculus [16] = test: Anti-inflammatory activity in CDAHFD induced C57BL/6N mouse liver injury model assessed as reduction in inflammatory cell infiltration in liver at 200 mg/kg,po qd administration for 4 weeks by hematoxylin and eosin staining based assay; assay type: functional, organism-based
# Mus musculus [17] = test: Hepatoprotective activity in CDAHFD induced C57BL/6N mouse liver injury model assessed as reduction in free cholesterol level at 200 mg/kg,po qd administration for 4 weeks; assay type: functional, organism-based
# Mus musculus [18] = test: Anti-inflammatory activity in CDAHFD induced C57BL/6N mouse liver injury model assessed as downregulation of TNF-alpha mRNA expression in liver at 200 mg/kg,po qd administration for 4 weeks by qRT-PCR analysis; assay type: functional, organism-based
# THP-1 [19] = test: Anti-inflammatory activity in PMA differentiated human THP-1 cells assessed as downregulation of caspase-1 protein expression at 10 micromol/L incubated for 4 hrs followed by LPS and Nigericin addition for 3.5 hrs by Western blotting analysis; assay type: functional, cell-based; details: dose 10.0 µmol/L, time 7.5 hrs
# LX-2 [20] = test: Antifibrotic activity in TGF-beta1 induced human LX2 cells assessed as downregulation of COL1A1 mRNA expression incubated for 24 hrs by qRT-PCR analysis; assay type: functional, cell-based
# LX-2 [21] = test: Antifibrotic activity in TGF-beta1 induced human LX2 cells assessed as downregulation of COL1A1 protein expression incubated for 24 hrs by western blotting analysis; assay type: functional, cell-based
# Mus musculus [22] = test: Hepatoprotective activity in CDAHFD induced C57BL/6N mouse liver injury model assessed as decrease in triglyceride level at 200 mg/kg,po qd administration for 4 weeks; assay type: functional, organism-based
# THP-1 [23] = test: Anti-inflammatory activity in PMA differentiated human THP-1 cells assessed as downregulation of caspase-1 protein expression at 5 micromol/L incubated for 4 hrs followed by LPS and Nigericin addition for 3.5 hrs by Western blotting analysis; assay type: functional, cell-based; details: dose 5.0 µmol/L, time 7.5 hrs
# Mus musculus [24] = test: Anti-inflammatory activity in CDAHFD induced C57BL/6N mouse liver injury model assessed as downregulation of IL-1beta protein expression in liver at 200 mg/kg,po qd administration for 4 weeks by Western blotting analysis; assay type: functional, organism-based
# Mus musculus [25] = test: Antifibrotic activity in CDAHFD induced non-alcoholic steatohepatitis C57BL/6N mouse model assessed as downregulation of TIMP1 protein expression at 200 mg/kg,po qd administration for 4 weeks by Western blotting analysis; assay type: functional, organism-based
# [26] = Metabolic stability in human liver microsomes assessed as intrinsic clearance at 1 micromol/L measured upto 60 mins in presence of NADPH by LC-MS/MS analysis; assay type: ADME, Microsome; details: 1 h, 1 µM, dose 1 µmol/L
# Mus musculus [27] = test: Hepatoprotective activity in CDAHFD induced C57BL/6N mouse liver injury model assessed as decrease in ALT level at 200 mg/kg,po qd administration for 4 weeks; assay type: functional, organism-based
# Mus musculus [28] = test: Anti-inflammatory activity in CDAHFD induced C57BL/6N mouse liver injury model assessed as downregulation of IL-6 protein expression in liver at 200 mg/kg,po qd administration for 4 weeks by Western blotting analysis; assay type: functional, organism-based
# LX-2 [29] = test: Antifibrotic activity in TGF-beta1 induced human LX2 cells assessed as downregulation of TIMP1 protein expression incubated for 24 hrs by western blotting analysis; assay type: functional, cell-based
# [30] = Acute toxicity in Kunming mouse assessed as effect on ALT level at 250 to 1000 mg/kg,po administration; assay type: organism-based; details: in vivo, dose 250-1000 mg/kg
# Rattus norvegicus [31] = test: Hepatoprotective activity in bile duct ligation induced Sprague-Dawley rat liver injury model assessed as decrease in ALT level at 200 mg/kg,po qd administration for 14 days; assay type: functional, organism-based; details: time 14.0 day
# [32] = Acute toxicity in Kunming mouse assessed as lethal dose at po administration; assay type: organism-based; details: in vivo
# [33] = Metabolic stability in human liver microsomes assessed as microsomal intrinsic clearance at 1 micromol/L measured upto 60 mins in presence of NADPH by LC-MS/MS analysis; assay type: ADME, Microsome; details: dose 1 µmol/L, read-out: CLH
# [34] = Metabolic stability in Sprague-Dawley rat liver microsomes assessed as microsomal intrinsic clearance at 1 micromol/L measured upto 60 mins in presence of NADPH by LC-MS/MS analysis; assay type: ADME, Microsome; details: dose 1 µmol/L, read-out: CLH
smiles,measurement,setting,value
COc1cc2c(cc1OC)-c1cc3ccc(OC)c(OCc4cccc(C)c4)c3c[n+]1CC2.[Br-],Activity,[1],Non-Toxic
same,Activity,Rattus norvegicus [2],Active
same,Activity,Mus musculus [3],Active
same,Activity,[4],Non-Toxic
same,Activity,Mus musculus [5],Active
same,Activity,Rattus norvegicus [6],Active
same,Activity,Mus musculus [7],Active
same,Activity,Mus musculus [8],Active
same,Activity,Mus musculus [9],Active
same,half-life at 1 µM,[10],53.3 min
same,Activity,Mus musculus [11],Active
same,Activity,Mus musculus [12],Active
same,Activity,Rattus norvegicus [13],Active
same,Activity,Rattus norvegicus [14],Active
same,CC50,[15],70.4 µM
same,Activity,Mus musculus [16],Active
same,Activity,Mus musculus [17],Active
same,Activity,Mus musculus [18],Active
same,Activity,THP-1 [19],Active
same,Activity,LX-2 [20],Dose-Dependent Effect
same,Activity,LX-2 [21],Dose-Dependent Effect
same,Activity,Mus musculus [22],inactive
same,Activity,THP-1 [23],Active
same,Activity,Mus musculus [24],Active
same,Activity,Mus musculus [25],Active
same,"CLint,scaled",[26],23.4 mL/min/kg
same,Activity,Mus musculus [27],Active
same,Activity,Mus musculus [28],Active
same,Activity,LX-2 [29],Dose-Dependent Effect
same,Activity,[30],Non-Toxic
same,Activity,Rattus norvegicus [31],Active
same,LD50,[32],> 1000 mg/kg
same,microsomal CLint at 1 µM,[33],26 µL/min/mg
same,microsomal CLint at 1 µM,[34],188 µL/min/mg
